Experimental data reported in EP1060162B1, “URETHANES DERIVED FROM AZACYCLOALKANES, THIO AND DITHIO ANALOGUES, PRODUCTION AND USE THEREOF AS 2,3 EPOXYSQUALENE LANESTEROL CYCLASE INHIBITORS” (Boehringer Ingelheim Pharma KG, priority 1997, dated 1999).
Structures can show the parent of a compound that is named as a salt. Where two headings read alike, the source gives them in different places.

Tests used:
[1] = target: T1, ^14C-Acetat-Einbau in die mit Digitonin fällbaren Steroide (Homo sapiens, UniProt P48449); test: Inhibition of 14C-acetate incorporation into digitonin-precipitable steroids; type: cell-based; conditions: read-out: Prozentwerte, um die die Verbindungen den ^14C-Acetat-Einbau hemmen
T1 sequence (P48449 2-732): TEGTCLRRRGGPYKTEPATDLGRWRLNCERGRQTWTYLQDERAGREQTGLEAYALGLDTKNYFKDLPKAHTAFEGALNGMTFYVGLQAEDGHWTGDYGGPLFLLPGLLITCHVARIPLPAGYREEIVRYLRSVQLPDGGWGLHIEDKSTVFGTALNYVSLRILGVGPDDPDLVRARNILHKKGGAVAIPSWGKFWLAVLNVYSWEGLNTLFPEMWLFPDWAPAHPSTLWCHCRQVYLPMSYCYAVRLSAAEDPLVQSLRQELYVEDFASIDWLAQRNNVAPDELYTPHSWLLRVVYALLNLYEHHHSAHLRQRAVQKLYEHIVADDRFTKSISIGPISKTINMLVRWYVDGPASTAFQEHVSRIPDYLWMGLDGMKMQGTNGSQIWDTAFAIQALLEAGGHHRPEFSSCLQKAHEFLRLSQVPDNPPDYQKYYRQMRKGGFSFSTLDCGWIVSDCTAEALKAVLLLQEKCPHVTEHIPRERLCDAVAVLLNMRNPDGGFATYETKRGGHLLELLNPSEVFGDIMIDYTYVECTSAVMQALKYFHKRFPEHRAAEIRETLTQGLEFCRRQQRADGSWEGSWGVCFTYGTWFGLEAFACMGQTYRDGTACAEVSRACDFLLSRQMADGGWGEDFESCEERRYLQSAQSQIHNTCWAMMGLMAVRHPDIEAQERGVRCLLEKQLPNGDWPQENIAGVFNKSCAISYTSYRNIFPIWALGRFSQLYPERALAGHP
Description: I. Messung der Hemmung des ^14C-Acetat-Einbaus in die mit Digitonin fällbaren Steroide:
Die Untersuchung der Hemmwirkung wurde nach der in J. Lipid. Res. 37, 148-157 [1996] beschriebenen Methode bei Testkonzentrationen von 10^-8 und 10^-9 Mol/l durchgeführt.
Die Prozentwerte, um die obigen Verbindungen den ^14C-Acetat-Einbau hemmen, sind in Tabelle 1 angegeben.

[2] = system: 2,3-Epoxisqualen-Lanosterol-Cyclase; test: In-vivo effect in the rat after oral administration: 2,3-epoxysqualene level in the liver; set-up: species or system Ratte
Protocol: II. Messung der in-vivo Wirkung an der Ratte nach oraler Gabe
Die Inhibierung des Enzyms 2,3-Epoxisqualen-Lanosterol-Cyclase bewirkt eine Erhöhung der 2,3-Epoxisqualenspiegel in Leber und Plasma. Die Menge an gebildetem 2,3-Epoxisqualen dient daher als direktes Maß für die Wirkstärke am Ganztier.Die Bestimmung wurde nach der in J. Lipid. Res. 38, 564-575, [1997] beschriebenen Methode nach t = 3 bzw. 8 Stunden nach Substanzgabe mit Konzentrationen von c = 0.01, 0.03, 0.1, 0.3 und 1.0 mg/kg durchgeführt. In der folgenden Tabelle 3 sind beispielhaft die Ergebnisse für die vorstehend erwähnten Substanzen A, B, C, D, E, G, H, I und K angegeben.

Asp. niger ATCC 16404 = test: Fungistatic effect, serial dilution test (microtitre system); type: cell-based; conditions: Aspergillus niger
Protocol: (§1) IV. Bestimmung der fungistatischen Wirkung
(§2) Die fungistatische Wirkung wurde über den Reihenverdünnungstest (Mikrotitersystem) bestimmt. Als Nährmedium diente Sabouraud-Bouillon. Das Inoculum betrug ca. 10^4 bis 10^5 KBE/ml (KBE = koloniebildende Einheiten); die Bebrütungszeit betrug 2 bis 4 Tage bei 26°C.
(§3) Es wurde die niedrigste Konzentration, die sichtbares Wachstum nicht mehr zuließ (minimale Hemmkonzentration MHK), bestimmt.
(§4) Geprüft wurden die vorstehend erwähnten Verbindungen A, B, D, E, F, H, I, K, L und M. Die Ergebnisse sind in der folgenden Tabelle 5 zusammengefaßt. Die MHK ist in µg/ml angegeben.

[3] = system: Cand. albicans ATCC 10231; test: as above; type: cell-based; conditions: Candida albicans
Protocol: as §1, §2, §3, §4

Pen.notatum CBS 19746 = test: as above; type: cell-based; conditions: Penicillium chrysogenum
Protocol: as §1, §2, §3, §4

Rhod. rubra 49 = test: as above; type: cell-based; conditions: read-out: MHK
Protocol: as §1, §2, §3, §4

[4] = system: Sacch. carlsbergensis ATCC 9080; test: as above; type: cell-based; conditions: Saccharomyces pastorianus
Protocol: as §1, §2, §3, §4

[5] = system: Trich. mentagrophytes ATCC 9129; test: as above; type: cell-based; conditions: Trichophyton mentagrophytes
Protocol: as §1, §2, §3, §4

[6] = ATCC16404, Asp., Sabouraud-Bouillon, 2 bis 4 Tage bei 26°C, read-out: MHK
[7] = ATCC10231, Cand., Sabouraud-Bouillon, 2 bis 4 Tage bei 26°C, read-out: MHK
[8] = CBS19746, Pen., Sabouraud-Bouillon, 2 bis 4 Tage bei 26°C, read-out: MHK
[9] = Rhod., Sabouraud-Bouillon, 2 bis 4 Tage bei 26°C
[10] = ATCC9080, Sacc., Sabouraud-Bouillon, 2 bis 4 Tage bei 26°C, read-out: MHK
[11] = ATCC9129, Trich., Sabouraud-Bouillon, 2 bis 4 Tage bei 26°C, read-out: MHK

Row | Structure (SMILES) | inhibition at 0.01 µM ([1]; Testkonzentration 10^-8 Mol/l) [%] | inhibition at 0.001 µM ([1]; Testkonzentration 10^-9 Mol/l) [%] | 2,3-Epoxysqualen-Konzentration in der Leber (Ratte) ([2]; c = 0.3 mg/kg, t = 3 h) [µg/g] | 2,3-Epoxysqualen-Konzentration in der Leber (Ratte) ([2]; c = 0.3 mg/kg, t = 8 h) [µg/g] | 2,3-Epoxysqualen-Konzentration in der Leber (Ratte) ([2]; c = 1.0 mg/kg, t = 3 h) [µg/g] | 2,3-Epoxysqualen-Konzentration in der Leber (Ratte) ([2]; c = 1.0 mg/kg, t = 8 h) [µg/g] | MIC (Asp. niger ATCC 16404; [6]) [µg/mL] | MIC [3, 7] [µg/mL] | MIC (Pen.notatum CBS 19746; [8]) [µg/mL] | MIC (Rhod. rubra 49; [9]) [µg/mL] | MIC [4, 10] [µg/mL] | MIC [5, 11] [µg/mL] | 2,3-Epoxysqualen-Konzentration in der Leber (Ratte) ([2]; c = 0.01 mg/kg, t = 3 h) [µg/g] | 2,3-Epoxysqualen-Konzentration in der Leber (Ratte) ([2]; c = 0.01 mg/kg, t = 8 h) [µg/g] | 2,3-Epoxysqualen-Konzentration in der Leber (Ratte) ([2]; c = 0.1 mg/kg, t = 3 h) [µg/g] | 2,3-Epoxysqualen-Konzentration in der Leber (Ratte) ([2]; c = 0.1 mg/kg, t = 8 h) [µg/g] | also measured
1 | CN(C)Cc1ccc(C(=O)C2CCN(C(=S)SCc3ccccc3)CC2)cc1.Cl [B, N-(Benzylthio) thiocarbonyl-4-[4-(dimethylaminomethyl)benzoyl]piperidin-hydrochlorid] | 85 | 47 | 4.5 | 5.8 | 39.2 | 42.0 | 32 | 64 | 8 | 16 | 32 | 2 |  |  |  |  | 
2 | CN(C)Cc1ccc(SC2CCN(C(=O)OCc3ccccc3)CC2)cc1.Cl [C, N-Benzyloxycarbonyl-4-[4-(dimethylaminomethyl)phenylthio]-piperidin-hydrochlorid] | 78 | 57 | 0.5 | 1.8 | 3.8 | 2.0 |  |  |  |  |  |  | 0.6 | 3.0 | 0.5 | 1.3 | 
3 | CN(C)Cc1ccc(SC2CCN(C(=O)Oc3ccc(Cl)cc3)CC2)cc1 [D, N-(4-Chlorphenoxy)carbonyl-4-[4-(dimethylaminomethyl)-phenylthio]piperidin-hydrochlorid] |  |  |  |  |  |  |  |  |  |  |  |  | 1.3 | 1.0 | 1.4 | 1.8 | inhibition at 0.001 µM [1]: 55%; inhibition at 0.01 µM [1]: 86%; MIC (Asp. niger ATCC 16404; ATCC16404, read-out: MHK): 256 µg/mL; MIC ([3]; ATCC10231, read-out: MHK): 64 µg/mL; MIC (Pen.notatum CBS 19746; CBS19746, read-out: MHK): 128 µg/mL; MIC (Rhod. rubra 49): 64 µg/mL; MIC ([4]; ATCC9080, read-out: MHK): 128 µg/mL; MIC ([5]; ATCC9129, read-out: MHK): 16 µg/mL
4 | CN(C)Cc1ccc(CC2CCN(C(=S)SCc3ccccc3)CC2)cc1.Cl [E, N-(Benzylthio)thiocarbonyl-4-[4-(dimethylaminomethyl)-benzyl]piperidin-hydrochlorid] | 87 | 47 |  |  |  |  | 8 | 16 | 1 | 4 | 16 | 1 | 0.9 | 1.0 | 5.6 | 4.4 | 
5 | CN(C)Cc1ccc(C=C2CCN(C(=S)SCc3ccccc3)CC2)cc1.Cl [F, N-(Benzylthio)thiocarbonyl-4-[4-(dimethylaminomethyl)-benzyliden]piperidin-hydrochlorid] | 84 | 45 |  |  |  |  | 8 | 16 | 4 | 4 | 16 | 2 |  |  |  |  | 
6 | CN(C)Cc1ccc(CC2CCN(C(=S)Oc3ccc(Cl)cc3)CC2)cc1 [G, N-(4-Chlorphenoxy)thiocarbonyl-4-[4-(dimethylaminomethyl)-benzyl]piperidin-hydrochlorid] | 83 | 56 |  |  | 87.4 | 134.2 |  |  |  |  |  |  |  |  | 10.3 | 11.5 | 
7 | Cc1ccc(OC(=S)N2CCC(Cc3ccc(CN(C)C)cc3)CC2)cc1.Cl [L, 4-[4-(Dimethylaminomethyl)benzyl] -N-(4-methylphenoxy) - thiocarbonylpiperidin-hydrochlorid] | 88 | 64 |  |  |  |  | 64 | 32 | 32 | 8 | 64 | 1 |  |  |  |  | 
8 | CN(C)Cc1ccc([C@H]2CC[C@H](N(C)C(=O)c3ccc(Cl)cc3)CC2)cc1 [V, reference compound] | 59 | 23 |  |  |  |  |  |  |  |  |  |  |  |  |  |  | 
9 | CN(C)Cc1ccc(SC2CCN(C(=S)SCc3ccccc3)CC2)cc1.Cl [Verbindung A, N-(Benzylthio)thiocarbonyl-4-[4-(dimethylaminomethyl)-phenylthio]piperidin-hydrochlorid] | 85 | 53 | 2.0 | 1.2 | 9.3 | 9.8 | 8 | 16 | 4 | 16 | 8 | 1 |  |  |  |  | 
10 | Cc1ccc(CC(=O)O[C@H]2CC[C@H](c3ccc(CN(C)C)cc3)CC2)cc1 [W, trans-O-(p-Tolylacetyl)-4-(4-dimethylaminomethylphenyl)-cyclohexanol, reference compound] | 72 | 21 |  |  |  |  |  |  |  |  |  |  |  |  |  |  | 
